Results: ChEMBL document CHEMBL1201861, “Genomics of Drug Sensitity in Cancer screening data, Wellcome Trust Sanger Institute”

What was measured:
Assay in all cases: cells
D283 Med = assay type: functional, cell-based, Homo sapiens; conditions: Homo sapiens, D283 Med
Description: SANGER: Inhibition of human D-283MED cell growth in a cell viability assay.

D-336MG = assay type: functional, cell-based, Homo sapiens; conditions: Homo sapiens, D-336MG
Description: SANGER: Inhibition of human D-336MG cell growth in a cell viability assay.

D-542MG = assay type: functional, cell-based, Homo sapiens; conditions: Homo sapiens, D-542MG
Description: SANGER: Inhibition of human D-542MG cell growth in a cell viability assay.

DMS-79 = assay type: functional, cell-based; conditions: Homo sapiens;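 further: growth inhibition measured with a cell viability assay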
Description: SANGER: Inhibition of human DMS-79 cell growth in a cell viability assay.

Daoy = assay type: functional, cell-based, Homo sapiens; conditions: Homo sapiens, Daoy;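 further: daoy cell growth inhibition, read out as cell viability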
Description: SANGER: Inhibition of human Daoy cell growth in a cell viability assay.

EW-18 = assay type: functional, cell-based; conditions: Homo sapiens;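 further: growth inhibition of EW-18 cells, read out by a cell viability assay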
Description: SANGER: Inhibition of human EW-18 cell growth in a cell viability assay.

GAK = assay type: functional, cell-based, Homo sapiens; conditions: Homo sapiens, GAK;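 further: cell growth inhibition read out by a cell viability assay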
Description: SANGER: Inhibition of human GAK cell growth in a cell viability assay.

HC-1 = assay type: functional, cell-based; conditions: Homo sapiens;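 further: growth inhibition of HC-1 cells measured by a cell viability assay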
Description: SANGER: Inhibition of human HC-1 cell growth in a cell viability assay.

HCC2157 = assay type: functional, cell-based; conditions: Homo sapiens;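 further: growth inhibition of the cancer cell line, read out as cell viability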
Description: SANGER: Inhibition of human HCC2157 cell growth in a cell viability assay.

HuP-T3 = assay type: functional, cell-based, Homo sapiens; conditions: Homo sapiens, HuP-T3;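 further: HuP-T3 cell growth inhibition, read out with a cell viability assay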
Description: SANGER: Inhibition of human HuP-T3 cell growth in a cell viability assay.

JVM-2 = assay type: functional, cell-based; conditions: Homo sapiens;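 further: growth inhibition of JVM-2 cells determined by a cell viability assay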
Description: SANGER: Inhibition of human JVM-2 cell growth in a cell viability assay.

KARPAS-45 = assay type: functional, cell-based; conditions: Homo sapiens;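 further: inhibition of cell line growth, read out through a viability assay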
Description: SANGER: Inhibition of human KARPAS-45 cell growth in a cell viability assay.

KG-1 = assay type: functional, cell-based; conditions: Homo sapiens;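 further: growth inhibition of KG-1 cells, read out by a cell viability assay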
Description: SANGER: Inhibition of human KG-1 cell growth in a cell viability assay.

KGN = assay type: functional, cell-based, Homo sapiens; conditions: Homo sapiens, KGN;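 further: growth inhibition of KGN cells, read out with a cell viability assay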
Description: SANGER: Inhibition of human KGN cell growth in a cell viability assay.

MCF7 = assay type: functional, cell-based, Homo sapiens; conditions: Homo sapiens, MCF7;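 further: growth inhibition of human MCF7 cells, read out with a cell viability assay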
Description: SANGER: Inhibition of human MCF7 cell growth in a cell viability assay.

MDA-MB-231 = assay type: functional, cell-based, Homo sapiens; conditions: Homo sapiens, MDA-MB-231
Description: SANGER: Inhibition of human MDA-MB-231 cell growth in a cell viability assay.

MDA-MB-453 = assay type: functional, cell-based, Homo sapiens; conditions: Homo sapiens, MDA-MB-453
Description: SANGER: Inhibition of human MDA-MB-453 cell growth in a cell viability assay.

MKN-45 = assay type: functional, cell-based, Homo sapiens; conditions: Homo sapiens, MKN-45;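 further: growth inhibition of human MKN-45 cells, measured with a cell viability assay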
Description: SANGER: Inhibition of human MKN45 cell growth in a cell viability assay.

MLMA = assay type: functional, cell-based, Homo sapiens; conditions: Homo sapiens, MLMA;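 further: growth inhibition of MLMA cells (human), determined through a cell viability readout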
Description: SANGER: Inhibition of human MLMA cell growth in a cell viability assay.

Mo = assay type: functional, cell-based; conditions: Homo sapiens
Description: SANGER: Inhibition of human Mo-T cell growth in a cell viability assay.

NCI-H1304 = assay type: functional, cell-based; conditions: Homo sapiens;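 further: growth inhibition of the cancer cell line, measured in a cell viability assay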
Description: SANGER: Inhibition of human NCI-H1304 cell growth in a cell viability assay.

NCI-H1623 = assay type: functional, cell-based, Homo sapiens; conditions: Homo sapiens, NCI-H1623;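 further: cell viability assay used as the read-out for growth inhibition of NCI-H1623 cells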
Description: SANGER: Inhibition of human NCI-H1623 cell growth in a cell viability assay.

NCI-H1651 = assay type: functional, cell-based, Homo sapiens; conditions: Homo sapiens, NCI-H1651;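 further: Read-out is a cell viability assay, with IC50 expressing inhibition of NCI-H1651 cell growth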
Description: SANGER: Inhibition of human NCI-H1651 cell growth in a cell viability assay.

NCI-H209 = assay type: functional, cell-based; conditions: Homo sapiens;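 further: growth inhibition of human NCI-H209 cells, measured by a cell viability assay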
Description: SANGER: Inhibition of human NCI-H209 cell growth in a cell viability assay.

NCI-H292 = assay type: functional, cell-based, Homo sapiens; conditions: Homo sapiens, NCI-H292;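 further: growth inhibition of NCI-H292 cells, read out with a cell viability assay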
Description: SANGER: Inhibition of human NCI-H292 cell growth in a cell viability assay.

NCI-H747 = assay type: functional, cell-based; conditions: Homo sapiens;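 further: growth inhibition of human NCI-H747 cells, read out by a cell viability assay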
Description: SANGER: Inhibition of human NCI-H747 cell growth in a cell viability assay.

NCI-H82 = assay type: functional, cell-based; conditions: Homo sapiens;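 further: growth inhibition of NCI-H82 cells, measured with a cell viability readout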
Description: SANGER: Inhibition of human NCI-H82 cell growth in a cell viability assay.

NMC-G1 = assay type: functional, cell-based, Homo sapiens; conditions: Homo sapiens, NMC-G1;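 further: growth inhibition of the NMC-G1 cell line, measured with a cell viability read-out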
Description: SANGER: Inhibition of human NMC-G1 cell growth in a cell viability assay.

PFSK-1 = assay type: functional, cell-based, Homo sapiens; conditions: Homo sapiens, PFSK-1;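 further: cell viability assay measuring how strongly compounds suppress growth of human PFSK-1 cells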
Description: SANGER: Inhibition of human PFSK-1 cell growth in a cell viability assay.

RERF-LC-MS = assay type: functional, cell-based, Homo sapiens; conditions: Homo sapiens, RERF-LC-MS;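 further: growth inhibition of human RERF-LC-MS cells, read out by a cell viability assay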
Description: SANGER: Inhibition of human RERF-LC-MS cell growth in a cell viability assay.

RH-1 = assay type: functional, cell-based, Homo sapiens; conditions: Homo sapiens, RH-1;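 further: growth inhibition of human RH-1 cells, read out with a cell viability assay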
Description: SANGER: Inhibition of human RH-1 cell growth in a cell viability assay.

RVH-421 = assay type: functional, cell-based, Homo sapiens; conditions: Homo sapiens, RVH-421
Description: SANGER: Inhibition of human RVH-421 cell growth in a cell viability assay.

Ramos-2G6-4C10 = assay type: functional, cell-based; conditions: Homo sapiens;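 further: growth inhibition of the cell line, measured by a cell viability read-out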
Description: SANGER: Inhibition of human Ramos-2G6-4C10 cell growth in a cell viability assay.

SF-126 = assay type: functional, cell-based, Homo sapiens; conditions: Homo sapiens, SF-126;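 further: growth inhibition of human SF126 cells, read out with a cell viability assay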
Description: SANGER: Inhibition of human SF126 cell growth in a cell viability assay.

SK-MES-1 = assay type: functional, cell-based, Homo sapiens; conditions: Homo sapiens, SK-MES-1;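 further: growth inhibition of human SK-MES-1 cells, read out with a cell viability assay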
Description: SANGER: Inhibition of human SK-MES-1 cell growth in a cell viability assay.

SKG-IIIa = assay type: functional, cell-based, Homo sapiens; conditions: Homo sapiens, SKG-IIIa;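 further: cell growth inhibition, read out with a cell viability assay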
Description: SANGER: Inhibition of human SKG-IIIa cell growth in a cell viability assay.

SN12C = assay type: functional, cell-based, Homo sapiens; conditions: Homo sapiens, SN12C;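 further: growth inhibition of human SN12C cells, measured by a cell viability assay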
Description: SANGER: Inhibition of human SN12C cell growth in a cell viability assay.

SNU-C2B = assay type: functional, cell-based, Homo sapiens; conditions: Homo sapiens, SNU-C2B;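 further: cell viability readout used to measure compound-driven suppression of SNU-C2B cell proliferation, IC50 marking half-maximal growth inhibition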
Description: SANGER: Inhibition of human SNU-C2B cell growth in a cell viability assay.

SW626 = assay type: functional, cell-based, Homo sapiens; conditions: Homo sapiens, SW626;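 further: growth inhibition of SW626 cells, measured with a cell viability assay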
Description: SANGER: Inhibition of human SW626 cell growth in a cell viability assay.

SW756 = assay type: functional, cell-based, Homo sapiens; conditions: Homo sapiens, SW756;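 further: growth inhibition of human SW756 cells, read out with a cell viability assay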
Description: SANGER: Inhibition of human SW756 cell growth in a cell viability assay.

CWR22R = assay type: functional, cell-based, Homo sapiens; conditions: Homo sapiens, 22Rv1;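 further: growth inhibition of 22Rv1 cells, read out with a cell viability assay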
Description: SANGER: Inhibition of human 22RV1 cell growth in a cell viability assay.

639-V = assay type: functional, cell-based, Homo sapiens; conditions: Homo sapiens, 639-V;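 further: growth inhibition of 639-V cells, read out with a cell viability assay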
Description: SANGER: Inhibition of human 639-V cell growth in a cell viability assay.

8505C = assay type: functional, cell-based, Homo sapiens; conditions: Homo sapiens, 8505C
Description: SANGER: Inhibition of human 8505C cell growth in a cell viability assay.

A2058 = assay type: functional, cell-based; conditions: Homo sapiens;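 further: reduction of A2058 cell growth, read out with a viability assay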
Description: SANGER: Inhibition of human A2058 cell growth in a cell viability assay.

A673 = assay type: functional, cell-based, Homo sapiens; conditions: Homo sapiens, A673;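 further: growth inhibition of human A673 cells, read out through a cell viability assay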
Description: SANGER: Inhibition of human A673 cell growth in a cell viability assay.

A704 = assay type: functional, cell-based, Homo sapiens; conditions: Homo sapiens, A704;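 further: growth inhibition of human A704 cells, read out with a cell viability assay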
Description: SANGER: Inhibition of human A704 cell growth in a cell viability assay.

AM-38 = assay type: functional, cell-based, Homo sapiens; conditions: Homo sapiens, AM-38;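 further: growth inhibition of AM-38 cells of human origin, read out by a cell viability assay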
Description: SANGER: Inhibition of human AM-38 cell growth in a cell viability assay.

AN3-CA = assay type: functional, cell-based; conditions: Homo sapiens;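 further: growth inhibition of human AN3-CA cells measured by a cell viability assay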
Description: SANGER: Inhibition of human AN3-CA cell growth in a cell viability assay.

Becker = assay type: functional, cell-based, Homo sapiens; conditions: Homo sapiens, Becker;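 further: growth inhibition of Becker cells, read out with a cell viability assay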
Description: SANGER: Inhibition of human Becker cell growth in a cell viability assay.

CAL-12T = assay type: functional, cell-based, Homo sapiens; conditions: Homo sapiens, CAL-12T;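 further: growth inhibition of human CAL-12T cells, read out with a cell viability assay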
Description: SANGER: Inhibition of human CAL-12T cell growth in a cell viability assay.

CAL-72 = assay type: functional, cell-based, Homo sapiens; conditions: Homo sapiens, CAL-72;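 further: cell viability assay measuring inhibition of proliferation in the CAL-72 cell line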
Description: SANGER: Inhibition of human CAL-72 cell growth in a cell viability assay.

TE-12 = assay type: functional, cell-based; conditions: Homo sapiens;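 further: growth inhibition of TE-12 cells, read out by a cell viability assay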
Description: SANGER: Inhibition of human TE-12 cell growth in a cell viability assay.

U-266 = assay type: functional, cell-based; conditions: Homo sapiens
Description: SANGER: Inhibition of human U-266 cell growth in a cell viability assay.

Molecule COc1cc([C@@H]2c3cc4c(cc3[C@@H](O[C@@H]3O[C@@H]5CO[C@@H](C)O[C@H]5[C@H](O)[C@H]3O)[C@H]3COC(=O)[C@H]23)OCO4)cc(OC)c1O [ETOPOSIDE] has an IC50 (D283 Med) of 2.2 µM, an IC50 (D-336MG) of over 16 µM and an IC50 (D-542MG) of over 16 µM. For the same molecule, the IC50 (DMS-79) was over 16 µM, the IC50 (Daoy) was 0.368 µM and the IC50 (EW-18) was over 16 µM. It also gave an IC50 (GAK) of over 16 µM, an IC50 (HC-1) of 0.54 µM and an IC50 (HCC2157) of over 16 µM. The IC50 (HuP-T3) was over 16 µM, the IC50 (JVM-2) was over 16 µM and the IC50 (KARPAS-45) was over 16 µM. For the same molecule, the IC50 (KG-1) was 9.72 µM, the IC50 (KGN) was 0.352 µM and the IC50 (MCF7) was 0.831 µM. The IC50 (MDA-MB-231) was 9.09 µM, the IC50 (MDA-MB-453) was over 16 µM and the IC50 (MKN-45) was 1.87 µM. It also gave an IC50 (MLMA) of 3.38 µM, an IC50 (Mo) of over 16 µM and an IC50 (NCI-H1304) of 2.3 µM. For the same molecule, the IC50 (NCI-H1623) was 14 µM, the IC50 (NCI-H1651) was over 16 µM and the IC50 (NCI-H209) was 1.21 µM. The IC50 (NCI-H292) was 4.71 µM, the IC50 (NCI-H747) was over 16 µM and the IC50 (NCI-H82) was over 16 µM. For the same molecule, the IC50 (NMC-G1) was 3.32 µM, the IC50 (PFSK-1) was over 16 µM and the IC50 (RERF-LC-MS) was 2.49 µM. The IC50 (RH-1) was 0.0178 µM, the IC50 (RVH-421) was over 16 µM and the IC50 (Ramos-2G6-4C10) was 9.94 µM. It also gave an IC50 (SF-126) of 1.44 µM, an IC50 (SK-MES-1) of 0.808 µM and an IC50 (SKG-IIIa) of over 16 µM. The IC50 (SN12C) was 1.88 µM, the IC50 (SNU-C2B) was over 16 µM and the IC50 (SW626) was 8.9 µM. For the same molecule, the IC50 (SW756) was 2.98 µM, the IC50 (CWR22R) was 1.53 µM and the IC50 (639-V) was 1.01 µM. It also gave an IC50 (8505C) of 0.693 µM, an IC50 (A2058) of 0.425 µM and an IC50 (A673) of 2.16 µM. For the same molecule, the IC50 (A704) was over 16 µM, the IC50 (AM-38) was 3.67 µM and the IC50 (AN3-CA) was 2.2 µM. It also gave an IC50 (Becker) of 11.8 µM, an IC50 (CAL-12T) of 11.1 µM and an IC50 (CAL-72) of over 16 µM. For the same molecule, the IC50 (TE-12) was over 16 µM and the IC50 (U-266) was over 16 µM.

Cn1cncc1[C@@](N)(c1ccc(Cl)cc1)c1ccc2c(c1)c(-c1cccc(Cl)c1)cc(=O)n2C [TIPIFARNIB] was tested, and the IC50 (D283 Med) was over 16 µM, the IC50 (D-542MG) was 1.41 µM and the IC50 (DMS-79) was over 16 µM. For the same molecule, the IC50 (Daoy) was 0.0575 µM, the IC50 (EW-18) was 0.458 µM and the IC50 (GAK) was 3.8 µM. The IC50 (HC-1) was 1.75 µM, the IC50 (HCC2157) was 0.323 µM and the IC50 (HuP-T3) was over 16 µM. It also gave an IC50 (JVM-2) of over 16 µM, an IC50 (KARPAS-45) of 12.9 µM and an IC50 (KG-1) of 3.06 µM. For the same molecule, the IC50 (KGN) was 0.452 µM, the IC50 (MCF7) was 0.166 µM and the IC50 (MDA-MB-231) was 5.83 µM. For the same molecule, the IC50 (MDA-MB-453) was over 16 µM, the IC50 (MKN-45) was 2.79 µM and the IC50 (MLMA) was over 16 µM. The IC50 (Mo) was over 16 µM, the IC50 (NCI-H1304) was over 16 µM and the IC50 (NCI-H1623) was over 16 µM. For the same molecule, the IC50 (NCI-H1651) was over 16 µM, the IC50 (NCI-H209) was over 16 µM and the IC50 (NCI-H292) was 9.28 µM. For the same molecule, the IC50 (NCI-H747) was 2.66 µM, the IC50 (NCI-H82) was 9.1 µM and the IC50 (NMC-G1) was 0.425 µM. The IC50 (PFSK-1) was over 16 µM, the IC50 (RERF-LC-MS) was over 16 µM and the IC50 (RH-1) was 2.75 µM. For the same molecule, the IC50 (RVH-421) was over 16 µM, the IC50 (Ramos-2G6-4C10) was over 16 µM and the IC50 (SF-126) was 3.88 µM. It also gave an IC50 (SK-MES-1) of 1.91 µM, an IC50 (SKG-IIIa) of over 16 µM and an IC50 (SN12C) of 13.2 µM. It also gave an IC50 (SNU-C2B) of 10.4 µM, an IC50 (SW626) of 1.37 µM and an IC50 (SW756) of 13.6 µM. For the same molecule, the IC50 (CWR22R) was 3.22 µM, the IC50 (639-V) was 1.19 µM and the IC50 (8505C) was 0.431 µM. For the same molecule, the IC50 (A2058) was 11.8 µM, the IC50 (A673) was 15.3 µM and the IC50 (A704) was over 16 µM. For the same molecule, the IC50 (AM-38) was over 16 µM, the IC50 (AN3-CA) was 1 µM and the IC50 (Becker) was 6.4 µM. It also gave an IC50 (CAL-12T) of 0.76 µM, an IC50 (CAL-72) of 4.95 µM and an IC50 (TE-12) of 2.82 µM. For the same molecule, the IC50 (U-266) was over 16 µM.
